We go through one molecule from patent publication US11083743B2, “DNA hypomethylating agents for cancer therapy” (priority 2013, dated 2021).

Assay [1] deals with TS/A cells. Description: Anti-tumor activity on TS/A tumor grafts in SCID/Beige mice. The class given is in vivo. The conditions noted are these: FIG. 6B, first cycle only. How it is done:
(§1) Six-week-old female BALB/c, athymic nude and SCID/Beige mice were obtained from Harlan laboratories (Udine, Italy). Animal care and use were in accordance with Institutional guidelines and the indications of Workman et al. (Workman P, et al. Br J Cancer. 2010 May 25; 102(11): 1555-1577).
(§2) Mice were sc injected in the flank region with TS/A cells (2×10^5) resuspended in 0.1 ml of physiologic saline. Animals were examined daily and after a latency period of 1 week, mice bearing clearly palpable and visible tumor grafts (diameter≥0.2 cm) were ip injected with 0.2 ml/injection of i) 15 mg/kg/day of 5-AZA-CdR, three times a day every three hours on days 0 and 7 and on days 42 and 49 for the 2nd cycle of treatment; ii) 100 μg/mouse of anti-CTLA-4 mAb, on days 2, 5 and 8 and on days 44, 47 and 50 for the 2nd cycle of treatment; iii) 100 μg/mouse of anti-PDL-1 mAb on days 2, 5 and 8; iv) combined administration of 5-AZA-CdR and anti-CTLA-4 mAb according to the above reported schedules or; v) combined administration of 5-AZA-CdR and anti-PDL-1 mAb according to the above reported schedules. […] Animals were weekly monitored for changes in the tumor size or sacrificed by CO2 overdose; for the latter, tumor tissues were surgically removed, and each specimen, divided under sterile conditions, were snap-frozen in liquid nitrogen and stored at −80° C. until used for RNA and DNA extraction.

The subject of assay [2] is TS/A cells. Description: Anti-tumor activity on TS/A tumor grafts in syngeneic BALB/c mice (caliper tumor volume). The class given is in vivo. The conditions noted are these: FIG. 1. How it is done: Primary cultures of murine mammary carcinoma cells TS/A were grown in DMEM Medium supplemented with 10% heat-inactivated FCS (Lonza), 2 mM L-glutamine (Biochrom AG) and 50 μM β-mercaptoethanol. Six-week-old female BALB/c, athymic nude and SCID/Beige mice were obtained from Harlan laboratories (Udine, Italy). Animal care and use were in accordance with Institutional guidelines and the indications of Workman et al. (Workman P, et al. Br J Cancer. 2010 May 25; 102(11): 1555-1577). Mice were sc injected in the flank region with TS/A cells (2×10^5) resuspended in 0.1 ml of physiologic saline. […] Control mice were ip injected with 0.2 ml of saline solution. Animals were weekly monitored for changes in the tumor size or sacrificed by CO2 overdose; for the latter, tumor tissues were surgically removed, and each specimen, divided under sterile conditions, were snap-frozen in liquid nitrogen and stored at −80° C. until used for RNA and DNA extraction. In vivo tolerability was evaluated by measurements of body weight and mortality rate. The antiproliferative activity of the drug was evaluated by caliper measurements of tumor mass. Body weight and tumor size measurements were recorded periodically, all along the treatment. Tumor volumes (TV) were calculated as follows: TV=LD^2/2 (in which L is the longest diameter and D the shortest one).

A further assay has as its system MHC class I antigens. Description: MHC class I antigen expression on tumours of treated mice. The class given is in vivo.
Another assay has as its system P1A promoter. Description: qMSP analysis of P1A promoter methylation in excised tumor tissues. In kind it is in vivo, murine. The conditions noted are these: FIG. 3; tumors excised one week after end of first cycle (day 8). The protocol: Mice were sc injected in the flank region with TS/A cells (2×10^5) resuspended in 0.1 ml of physiologic saline. […] Control mice were ip injected with 0.2 ml of saline solution. Animals were weekly monitored for changes in the tumor size or sacrificed by CO2 overdose; for the latter, tumor tissues were surgically removed, and each specimen, divided under sterile conditions, were snap-frozen in liquid nitrogen and stored at -80° C. until used for RNA and DNA extraction. RNA and DNA were extracted from tissues sections, removed from control and treated mice one week after the end of the first cycle treatment (day 8) and homogenized with the aid of Tissue Lyser II (QIAGEN) in Trizol reagent or lysis buffer, respectively. Total RNA was extracted following the manufacturer's instructions and stored at -80° C. Total genomic DNA was extracted by digestion with 100 μg/ml proteinase K in the presence of 0.5% SDS at 50° C. overnight, followed by phenol/chloroform extraction and ethanol precipitation. Genomic DNA was eluted in TE buffer and stored at -20° C. […] Primers for the analysis of the methylation status of […], designed using the free on-line software MethPrimer (Li L C and […] Bioinformatics 2002; 18:1427-31), were: […] (Methylated), forward [NT] ID No. 5), reverse [NT] ID No. 6); […] (Unmethylated), forward [NT] ID No. 7), reverse [NT] ID No. 8). […]

Another assay relates to P1A. Description: Real-time quantitative RT-PCR of P1A expression in excised tumor tissues. In kind it is in vivo, murine. To be noted: FIG. 5; normalized to β-actin. The protocol:
Mice were sc injected in the flank region with TS/A cells (2×10^5) resuspended in 0.1 ml of physiologic saline. […] Control mice were ip injected with 0.2 ml of saline solution. Animals were weekly monitored for changes in the tumor size or sacrificed by CO2 overdose; for the latter, tumor tissues were surgically removed, and each specimen, divided under sterile conditions, were snap-frozen in liquid nitrogen and stored at -80° C. until used for RNA and DNA extraction. RNA and DNA were extracted from tissues sections, removed from control and treated mice one week after the end of the first cycle treatment (day 8) and homogenized with the aid of Tissue Lyser II (QIAGEN) in Trizol reagent or lysis buffer, respectively. Total RNA was extracted following the manufacturer's instructions and stored at -80° C. […] Real-time quantitative RT-PCR analyses were performed as previously described (Calabro L, et al., J Cell Physiol 2005; 202:474-7) Briefly, total RNA was digested with RNAse-free DNAse (Roche Diagnostics), to remove contaminating genomic DNA. […] Measurement of gene expression was performed utilizing the ABI prism 7000 Sequence Detection System (Applied Biosystems), as previously described (Calabro L, et al., J Cell Physiol 2005; 202:474-7). cDNA standards were obtained by RT-PCR amplification of the specific mRNAs and quantitated by NanoDrop® ND-1000 UV-Vis Spectrophotometer. […]

In assay [3] the test system is TS/A cells. Description: Anti-tumor activity on TS/A tumor grafts in T cell-deficient athymic nude mice. In kind it is in vivo. The conditions noted are these: FIG. 6A, first cycle only. How it is done:
as §1, §2

The subject of a further assay is tumour. Description: Histology and immunohistochemistry of surgically-excised tumors from treated mice. In kind it is in vivo.
Assay [4] deals with murine CTA (P1A, Mage-a family). Description: RT-PCR analysis of murine CTA expression in excised tumor tissues. The class given is in vivo. The conditions noted are these: FIG. 4, tumors excised one week after end of first cycle. How it is done: Mice were sc injected in the flank region with TS/A cells (2×10^5) resuspended in 0.1 ml of physiologic saline. […] Control mice were ip injected with 0.2 ml of saline solution. Animals were weekly monitored for changes in the tumor size or sacrificed by CO2 overdose; for the latter, tumor tissues were surgically removed, and each specimen, divided under sterile conditions, were snap-frozen in liquid nitrogen and stored at -80° C. until used for RNA and DNA extraction. RNA and DNA were extracted from tissues sections, removed from control and treated mice one week after the end of the first cycle treatment (day 8) and homogenized with the aid of Tissue Lyser II (QIAGEN) in Trizol reagent or lysis buffer, respectively. Total RNA was extracted following the manufacturer's instructions and stored at -80° C. Total genomic DNA was extracted by digestion with 100 μg/ml proteinase K in the presence of 0.5% SDS at 50° C. overnight, followed by phenol/chloroform extraction and ethanol precipitation. Genomic DNA was eluted in TE buffer and stored at -20° C. RT-PCR reactions were performed using oligonucleotide primer sequences and PCR amplification programs specific for […] and Mage-a family (Coral S, Covre A et al, Br J Cancer. 2012 Sep. 25; 107(7):1116-24). […]

SMILES strings stand for the structures.

Turning to `Nc1ncn([C@H]2C[C@H](O)[C@@H](CO)O2)c(=O)n1` [5-AZA-CdR, 5-aza-2′-deoxycytidine], the tumor growth entry in the assay with TS/A cells [1] was “significantly (p<0.05 and p<0.01) reduced tumor growth”; in the assay with TS/A cells [3], “significantly (p<0.05 and p<0.01) reduced tumor growth”. Also, the tumor growth inhibition is reported as 40.7% with TS/A cells [2] (day 15, vs control mice) and 67.6% in the assay on TS/A cells [2] (day 35, vs control mice). Further, in the assay with MHC class I antigens, the “constitutive expression of MHC class I antigens on tumours” value is listed as “increases”. Besides, in the assay on P1A promoter, the “constitutive methylation levels of P1A promoter in cancer tissues vs control mice” value is recorded as “significant (p<0.05) reduction”. The “levels of P1A-specific mRNA expression, 5-AZA-CdR alone compared with combination” value in the assay with P1A is listed as “similar”. The “lymphocyte infiltration into the tumour” value with tumour is listed as “neither induces lymphocyte infiltration”. The tumour necrosis entry in the assay on tumour is given as “does not induce tumour necrosis”. For the same molecule, the “expression of P1A and Mage-a members in tumor tissues” value in assay [4] was “strong de novo expression”.
